In US20040192686A1, “Benzoazine mono-N-oxides and benzoazine 1,4 dioxides and compositions therefrom for the therapeutic use in cancer treatments” (Auckland Uniservices Limited, priority 2003, published 2004):
In brackets after ≈: the same amount, converted by molar mass.

What was measured:
[1] = test system: HT29 colon carcinoma cells; assay: IC50 assay of potentiator alone, HT29 cells, 4 hr anoxic exposure, sulphorhodamine B staining; format: cell-based, human; settings: Homo sapiens, HT-29, 4 hr exposure under anoxic conditions, cell density by sulphorhodamine B five days after washing out
HT-29 MCLs = format: in vitro ADME, human
Protocol: Compounds are added to the donor compartment, along with ^14C-urea as an internal standard, and diffusion into the receiver compartment is monitored by HPLC and scintillation counting.
The concentrations in the Receiver compartment (normalised against the initial concentration in the Donor compartment) are plotted against those of the flux marker ^14C-urea to account for small differences in thickness of the MCLs. The fitted diffusion coefficients for TPZ (n=12) and SR 4317 (n=2) are: […] cm^2 sec^−1, respectively.
The inventors have also investigated the extravascular transport properties (tissue diffusion characteristics) of SR 4317 to assess whether it can diffuse well enough to reach hypoxic cells in tumours efficiently. This study used the multicellular layer (MCL) assay (Hicks et al., Int. J. Radiat. Oncol., Biol., Phys., 1998, 42, 641; Hicks et al., J. Pharmacol. Exper. Ther., 2001, 297, 1088), developed in this laboratory.

[2] = Plasma pharmacokinetics after intraperitoneal administration; format: in vivo, CD-1 mice
Protocol: The plasma pharrmacokinetics of SR 4317 and TPZ were determined in C3H mice, alone and in combination (FIG. 6), to assess whether therapeutic concentrations of SR 4317 can be achieved in mice.

[3] = test system: hypoxic (radioresistant) cells in HT29 tumours; assay: HT29 tumour xenograft excision assay: clonogenic survivors 18 hr after radiation and drug; format: in vivo, mice
Protocol: Animals with subcutaneous tumours (ca 300 mg) received whole body radiation (RAD; 20 Gy) to sterilise oxygenated tumour cells. Activity of drugs against the hypoxic survivors was determined by intraperitoneal administration of solutions in 5% DMSO/saline 5 min after radiation, using TPZ alone (133 μmol/kg) or in combination with SR 4317 (1000 μmol/kg). Tumours were excised 18 hr after treatment, dissociated enzymatically, and plated to determine the number of clonogenic survivors. Values are geometric means and error bars are standard errors of the mean. Horizontal lines show historical values for untreated controls and radiation only (solid lines are means, dashed lines are 95% confidence limits. p values were determined by one-way ANOVA using only data within this experiment.
The utility of SR 4317 as a potentiator of the hypoxic cytotoxicity of TPZ was assessed in an in vivo model (HT29 tumour xenografts) as illustrated in FIG. 7. In this experiment tumour response was determined by excising tumours 18 hr after treatment and quantifying the number of clonogenic survivors by plating in vitro. TPZ was administered at a sub-efficacious dose (0.133 mmol/kg), 5 minutes after whole body radiation (20 Gy). […] No significant cytotoxicity was observed when the two compounds were administered in the absence of irradiation, indicating lack of activity against aerobic cells in tumours (FIG. 7).

HT29 cells [4] = assay: Radiosensitisation of anoxic HT29 cells; format: cell-based, human; settings: 0.6 mM of each agent; anoxic HT29 cells irradiated 5 min after drug addition
Protocol: Anoxic cell suspensions were irradiated 5 min after addition of pre-equilibrated anoxic drug solutions. Data are shown for duplicate determinations, and are fitted using a linear-quadratic model

HT29 cells [5] = assay: TPZ potentiation test: IC50 of TPZ with and without potentiator, anoxic HT29 cells; format: cell-based, human; settings: conc of potentiator 0.5 mM; 4 hr anoxic exposure of HT29 cells
Solubility of SR 4317 = format: physicochemical
[6] = test system: HT29 human colon carcinoma cells; assay: Cytotoxicity (plating efficiency) in stirred single cell suspensions of HT29 cells, anoxic or aerobic; settings: for Potentiation of the aerobic cytotoxicity of TPZ: HT29 cells, gas phase 5% CO2 in air
Text: Cultures were maintained at <10 ppm O2 under a continuously-flowing stream of 5% CO2 in nitrogen and were sampled at intervals to determine plating efficiency.
Experimental conditions were as for FIG. 2, except that the gas phase was 5% CO2 in air. Values are means and error bars are ranges for duplicate cultures.
Drug exposure time was 1 hr. Error bars represent the range for duplicate determinations.

[7] = Approximate solubility limit in Alpha MEM culture medium containing 5% fetal calf serum; format: physicochemical; settings: plasma or biological fluid, kinetic from dmso stock, dilution from DMSO stock solutions

IC50 [1]: > 500 µM
Transport through hypoxic MCLs (HT-29 MCLs): faster than for TPZ
Maximum SR 4317 concentration in plasma ([2]; after intraperitoneal co-administration of TPZ + SR 4317 (750 μmol/kg), mice): ~200 µM
Plasma concentrations in mice ([2]; general statement): relatively low
Clearance from plasma ([2]; over the first two hours after co-administration of TPZ and SR 4317, mice): slow clearance
TPR (TPZ potentiation ratio) = TPZ IC50 without potentiator/TPZ IC50 with potentiator (HT29 cells [5]): 2.0
solubility (Solubility of SR 4317; aqueous solution, read-out: Aqueous solubility): ~800 µM (≈ 130 µg/mL)
solubility (Solubility of SR 4317; as stated for the HT29 cell suspension experiment (FIG. 1), read-out: Solubility limit): ~1000 µM (≈ 162 µg/mL)
solubility [7]: 800 µM (≈ 130 µg/mL)
SMILES: Nc1nc2ccccc2[n+]([O-])n1 [Compound 3, 1,2,4-Benzotriazin-3-amine 1-oxide]
Activity of radiation + TPZ + SR 4317 compared with radiation alone ([3]; SR 4317 1 mmol/kg added to TPZ 0.133 mmol/kg after 20 Gy, p<0.01 by one way ANOVA): greater than radiation alone
Difference between radiation+TPZ and radiation+TPZ+SR 4317 ([3]; SR 4317 1 mmol/kg, TPZ 0.133 mmol/kg, 20 Gy, p <0.05): significant
Relative potency for radiosensitization of hypoxic HT29 cells (HT29 cells [4]): misonidazole>metronidazole=SR4317
Potentiation of the cytotoxicity of TPZ to hypoxic tumour cells ([6]; HT29 cells in culture, anoxic (<10 ppm O2), TPZ 30 μM, simultaneous exposure): increased quite markedly
Potentiation of the aerobic cytotoxicity of TPZ ([6]; listed as SR 4317): does not potentiate
Potentiation of the aerobic cytotoxicity of TPZ ([6]; listed as SR4317): lack of potentiation
Potentiation of TPZ cytotoxicity ([6]; SR 4317 at 100 μM for 1 hr, TPZ 30 μM, anoxic HT29 cells): significant potentiation
Relative dose potency for potentiation of the hypoxic cytotoxicity of TPZ ([6]; TPZ 30 μM, anoxic HT29 cells 5×10^5/ml, drug exposure 1 hr): SR 4317>metronidazole=misonidazole
Toxicity of SR4317 alone ([6]; anoxic HT29 suspension, 5×10^5 cells/ml, up to its solubility limit (ca 1 mM)): non-toxic
